# Key:
# [1] = molecular target: T1, human mGluR4 (hmGluR4) (Homo sapiens, UniProt Q14833); experiment: Calcium assay EC50 determination, positive allosteric modulator activity on hmGluR4 transiently over-expressed in HEK-293 cells; format: cell-based; settings: PAM mode with EC20 glutamate; hmGluR4 in HEK-293 cells; intracellular calcium (Fluo4AM); read-out: mGluR4 positive allosteric modulator activity, half maximal effective concentration (EC50)
# T1 construct: expressed in transfected cells; host or cells: HEK-293 cells, transient co-transfection by electroporation
# Summary of the method: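 HEK-293 cells transiently co-transfected with hmGluR4, chimeric G protein and glutamate transporters; Fluo4AM calcium read (ex 485/em 525 nm) on FLIPR Tetra. Compound alone 10 min for agonism, then EC20 glutamate with 3 min recording for PAM activity, versus buffer or EC20 glutamate basal.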
# T1 sequence (Q14833 33-912): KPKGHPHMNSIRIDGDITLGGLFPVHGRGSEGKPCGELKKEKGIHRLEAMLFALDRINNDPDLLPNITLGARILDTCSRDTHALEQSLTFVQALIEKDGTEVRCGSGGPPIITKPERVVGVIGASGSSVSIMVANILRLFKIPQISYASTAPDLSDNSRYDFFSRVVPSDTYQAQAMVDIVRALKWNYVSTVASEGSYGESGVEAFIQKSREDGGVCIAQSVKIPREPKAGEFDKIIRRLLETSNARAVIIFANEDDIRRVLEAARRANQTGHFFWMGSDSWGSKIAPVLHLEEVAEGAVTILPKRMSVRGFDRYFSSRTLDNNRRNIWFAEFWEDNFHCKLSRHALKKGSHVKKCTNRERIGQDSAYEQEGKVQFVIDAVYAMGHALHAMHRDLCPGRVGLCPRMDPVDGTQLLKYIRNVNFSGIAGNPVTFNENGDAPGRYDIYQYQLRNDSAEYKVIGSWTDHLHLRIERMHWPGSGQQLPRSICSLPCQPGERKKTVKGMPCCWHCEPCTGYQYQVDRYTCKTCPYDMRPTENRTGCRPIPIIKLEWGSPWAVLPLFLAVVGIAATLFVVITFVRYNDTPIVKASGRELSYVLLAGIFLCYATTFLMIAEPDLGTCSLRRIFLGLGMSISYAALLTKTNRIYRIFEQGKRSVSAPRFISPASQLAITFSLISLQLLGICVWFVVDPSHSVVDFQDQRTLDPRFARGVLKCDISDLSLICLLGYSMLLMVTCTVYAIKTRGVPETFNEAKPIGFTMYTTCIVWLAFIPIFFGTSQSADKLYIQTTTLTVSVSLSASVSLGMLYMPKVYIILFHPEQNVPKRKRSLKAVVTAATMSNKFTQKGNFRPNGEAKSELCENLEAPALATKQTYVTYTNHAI
Structure (SMILES),EC50 [1],melting point
"Cc1cc(CCN2CCCCC2)cc2c(=O)[nH]c(-c3cnc4sccc4c3)nc12.Cl [Compound 128, 8-Methyl-6-(2-piperidin-1-yl-ethyl)-2-thieno[2,3-b]pyridin-5-yl-3H-quinazolin-4-one hydrochloride]",1000 to 10000 nM,> 250 °C
"Cc1cc(CN2CCCCC2)cc2c(=O)[nH]c(-c3cc4ccsc4cn3)nc12.Cl [Compound 131, 8-Methyl-6-(1-piperidylmethyl)-2-thieno[2,3-c]pyridin-5-yl-3H-quinazolin-4-one hydrochloride]",100 to 1000 nM,233 to 240 °C
"Cc1cc(CN2CCCC2)cc2c(=O)[nH]c(-c3cc4ccsc4cn3)nc12.Cl [Compound 133, 8-Methyl-6-(pyrrolidin-1-ylmethyl)-2-thieno[2,3-c]pyridin-5-yl-3H-quinazolin-4-one hydrochloride]",1000 to 10000 nM,> 250 °C
"Cc1cc(CN2CCCC2)cc2c(=O)[nH]c(-c3cc4sccc4cn3)nc12.Cl [Compound 139, 8-Methyl-6-(pyrrolidin-1-ylmethyl)-2-thieno[3,2-c]pyridin-6-yl-3H-quinazolin-4-one hydrochloride]",1000 to 10000 nM,> 250 °C
"Cc1cc(O[C@H]2CCN(C(=O)OCc3ccccc3)C2)cc2c(=O)[nH]c(-c3cc4sccc4cn3)nc12 [Compound 141, Benzyl (3S)-3-[(8-methyl-4-oxo-2-thieno[3,2-c]pyridin-6-yl-3H-quinazolin-6-yl)oxy]pyrrolidine-1-carboxylate]",100 to 1000 nM,224 to 227 °C
"Cc1cc(CCN2CCN(C)C(=O)C2)cc2c(=O)[nH]c(-c3cc4ccsc4cn3)nc12.Cl [Compound 142, 8-Methyl-6-[2-(4-methyl-3-oxo-piperazin-1-yl)ethyl]-2-thieno[2,3-c]pyridin-5-yl-3H-quinazolin-4-one hydrochloride]",100 to 1000 nM,> 250 °C
"Cc1cc(CCN2CCN(C)C(=O)C2)cc2c(=O)[nH]c(-c3cc(C(F)(F)F)ccn3)nc12.Cl [Compound 144, 8-Methyl-6-[2-(4-methyl-3-oxo-piperazin-1-yl)ethyl]-2-[4-(trifluoromethyl)-2-pyridyl]-3H-quinazolin-4-one hydrochloride]",100 to 1000 nM,148 to 150 °C
"Cc1cc(CCN2CC3(COC3)C2)cc2c(=O)[nH]c(-c3cc4ccsc4cn3)nc12 [Compound 145, 8-Methyl-6-[2-(2-oxa-6-azaspiro[3.3]heptan-6-yl)ethyl]-2-thieno[2,3-c]pyridin-5-yl-3H-quinazolin-4-one]",1000 to 10000 nM,220 to 225 °C
"Cc1cc(CCN2CC3(COC3)C2)cc2c(=O)[nH]c(-c3cc4sccc4cn3)nc12 [Compound 146, 8-Methyl-6-[2-(2-oxa-6-azaspiro[3.3]heptan-6-yl)ethyl]-2-thieno[3,2-c]pyridin-6-yl-3H-quinazolin-4-one]",100 to 1000 nM,160 to 200 °C
"COCCN(C)CCc1cc(C)c2nc(-c3cc4sccc4cn3)[nH]c(=O)c2c1.Cl [Compound 148, 6-(2-((2-Methoxyethyl)(methyl)amino)ethyl)-8-methyl-2-(thieno[3,2-c]pyridin-6-yl)quinazolin-4(3H)-one hydrochloride]",1000 to 10000 nM,149 to 162 °C
"COCCN(C)Cc1cc(C)c2nc(-c3cc4sccc4cn3)[nH]c(=O)c2c1.Cl [Compound 151, 6-(((2-Methoxyethyl)(methyl)amino)methyl)-8-methyl-2-(thieno[3,2-c]pyridin-6-yl)quinazolin-4(3H)-one hydrochloride]",100 to 1000 nM,205 to 215 °C
"COc1cc(CCN2CCOCC2)cc2c(=O)[nH]c(-c3cc(C(F)(F)F)ccn3)nc12.Cl [Compound 158, 8-Methoxy-6-(2-morpholinoethyl)-2-(4-(trifluoromethyl)pyridin-2-yl)quinazolin-4(3H)-one hydrochloride]",1000 to 10000 nM,> 250 °C
"Cl.O=c1[nH]c(-c2cc(C(F)(F)F)ccn2)nc2c(Br)cc(CCN3CCOCC3)cc12 [Compound 159, 8-Bromo-6-(2-morpholinoethyl)-2-(4-(trifluoromethyl)pyridin-2-yl)quinazolin-4(3H)-one hydrochloride]",≤ 100 nM,> 250 °C
"Cc1cc(CCN2CCOC(C)(C)C2)cc2c(=O)[nH]c(-c3cc(C(F)(F)F)ccn3)nc12.Cl [Compound 160, 6-(2-(2,2-dimethylmorpholino)ethyl)-8-methyl-2-(4-(trifluoromethyl)pyridin-2-yl)quinazolin-4(3H)-one hydrochloride]",≤ 100 nM,106 to 116 °C
"Cc1cc(CN2CCN(C)C(=O)C2)cc2c(=O)[nH]c(-c3cc(C(F)(F)F)ccn3)nc12.Cl [Compound 161, 8-Methyl-6-((4-methyl-3-oxopiperazin-1-yl)methyl)-2-(4-(trifluoromethyl)pyridin-2-yl)quinazolin-4(3H)-one hydrochloride]",100 to 1000 nM,> 250 °C
"Cc1cc(CCN2CC3CCC(C2)O3)cc2c(=O)[nH]c(-c3cc(C(F)(F)F)ccn3)nc12.Cl [Compound 162, 6-(2-(8-Oxa-3-azabicyclo[3.2.1]octan-3-yl)ethyl)-8-methyl-2-(4-(trifluoromethyl)pyridin-2-yl)quinazolin-4(3H)-one hydrochloride]",≤ 100 nM,160 to 170 °C
"Cc1cc(CCN2C3CCC2COC3)cc2c(=O)[nH]c(-c3cc(C(F)(F)F)ccn3)nc12.Cl [Compound 163, 6-(2-(3-oxa-8-azabicyclo[3.2.1]octan-8-yl)ethyl)-8-methyl-2-(4-(trifluoromethyl)pyridin-2-yl)quinazolin-4(3H)-one hydrochloride]",≤ 100 nM,200 to 250 °C
"Cc1cc(CCN2CCC(O)CC2)cc2c(=O)[nH]c(-c3cc(C(F)(F)F)ccn3)nc12.Cl [Compound 164, 6-(2-(4-hydroxypiperidin-1-yl)ethyl)-8-methyl-2-(4-(trifluoromethyl)pyridin-2-yl)quinazolin-4(3H)-one hydrochloride]",100 to 1000 nM,115 to 125 °C
"Cc1cc(CCN2CCC(F)(F)CC2)cc2c(=O)[nH]c(-c3cc(C(F)(F)F)ccn3)nc12.Cl [Compound 165, 6-(2-(4,4-difluoropiperidin-1-yl)ethyl)-8-methyl-2-(4-(trifluoromethyl)pyridin-2-yl)quinazolin-4(3H)-one hydrochloride]",100 to 1000 nM,240 to 250 °C
"COC1CCN(CCc2cc(C)c3nc(-c4cc(C(F)(F)F)ccn4)[nH]c(=O)c3c2)CC1.Cl [Compound 166, 6-(2-(4-methoxypiperidin-1-yl)ethyl)-8-methyl-2-(4-(trifluoromethyl)pyridin-2-yl)quinazolin-4(3H)-one hydrochloride]",100 to 1000 nM,> 250 °C

# Other lines, results leading:
EC50 [1],melting point,Structure (SMILES)
≤ 100 nM,90 to 110 °C,"Cc1cc(OC2CCC(=O)N(C)C2)cc2c(=O)[nH]c(-c3cc4sccc4cn3)nc12 (stereo not shown) [Compound 129, 8-Methyl-6-(1-methyl-6-oxo-piperidin-3-yloxy)-2-thieno[3,2-c]pyridin-6-yl-3H-quinazolin-4-one]"
≤ 100 nM,> 250 °C,"Cc1cc(OCC2CCN(C)C(=O)C2)cc2c(=O)[nH]c(-c3cc4ccsc4cn3)nc12 (stereo not shown) [Compound 130, 8-Methyl-6-(1-methyl-2-oxo-piperidin-4-ylmethoxy)-2-thieno[2,3-c]pyridin-5-yl-3H-quinazolin-4-one]"
≤ 100 nM,254 to 256 °C,"Cc1cc(CC(=O)N2CCOCC2)cc2c(=O)[nH]c(-c3cc4cccn4cn3)nc12 [Compound 134, 8-Methyl-6-(2-morpholino-2-oxo-ethyl)-2-pyrrolo[1,2-c]pyrimidin-3-yl-3H-quinazolin-4-one]"
≤ 100 nM,> 250 °C,"Cc1cc(OC2CCC(=O)N(C)C2)cc2c(=O)[nH]c(-c3cc(C(F)(F)F)ccn3)nc12 (stereo not shown) [Compound 136, 8-Methyl-6-(1-methyl-6-oxo-piperidin-3-yloxy)-2-(4-trifluoromethyl-pyridin-2-yl)-3H-quinazolin-4-one]"
≤ 100 nM,> 250 °C,"Cc1cc(CN2CCSCC2)cc2c(=O)[nH]c(-c3cc4ccsc4cn3)nc12.Cl [Compound 137, 8-Methyl-2-thieno[2,3-c]pyridin-5-yl-6-(thiomorpholinomethyl)-3H-quinazolin-4-one hydrochloride]"
≤ 100 nM,215 to 220 °C,"Cc1cc(CC(=O)N2CCCOCC2)cc2c(=O)[nH]c(-c3cc4ccsc4cn3)nc12 [Compound 138, 8-Methyl-6-[2-(1,4-oxazepan-4-yl)-2-oxo-ethyl]-2-thieno[2,3-c]pyridin-5-yl-3H-quinazolin-4-one]"
≤ 100 nM,200 to 212 °C,"Cc1cc(CCN2CCS(=O)(=O)CC2)cc2c(=O)[nH]c(-c3cc4sccc4cn3)nc12 [Compound 149, 6-(2-(1,1-Dioxidothiomorpholino)ethyl)-8-methyl-2-(thieno[3,2-c]pyridin-6-yl)quinazolin-4(3H)-one]"
≤ 100 nM,245 to 250 °C,"Cc1cc(CN2CCS(=O)(=O)CC2)cc2c(=O)[nH]c(-c3cc4sccc4cn3)nc12 [Compound 150, 6-[(1,1-Dioxo-1,4-thiazinan-4-yl)methyl]-8-methyl-2-thieno[3,2-c]pyridin-6-yl-3H-quinazolin-4-one]"
≤ 100 nM,> 250 °C,"Cc1cc(CN2CCC3(CC2)COC3)cc2c(=O)[nH]c(-c3cc4sccc4cn3)nc12 [Compound 155, 8-Methyl-6-(2-oxa-7-azaspiro[3.5]nonan-7-ylmethyl)-2-thieno[3,2-c]pyridin-6-yl-3H-quinazolin-4-one]"

# Reference: US20220089609A1, “SUBSTITUTED QUINAZOLINONE DERIVATIVES AND THEIR USE AS POSITIVE ALLOSTERIC MODULATORS OF MGLUR4” (DOMAIN THERAPEUTICS, priority 2018, published 2022)
